Source: PubChem BioAssay (NCI)
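Values below derive from 48-hour exposures of cells grown in 96-well plates, with endpoints linearly interpolated between the two concentrations bracketing the appropriate inhibition level. TGI: total growth inhibition.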

Legend:
Assay in all cases: NCI anticancer screen, dose series, 48 h
[1] = system: 786-0 renal
[2] = system: A498 renal
[3] = system: A549 NSCLC
[4] = system: ACHN renal
[5] = system: BT-549 breast
[6] = system: CAKI-1 renal
[7] = system: CCRF-CEM leukemia
[8] = system: COLO 205 colon
[9] = system: DU-145 prostate
[10] = system: EKVX NSCLC
[11] = system: HCC-2998 colon
[12] = system: HCT-116 colon
[13] = system: HCT-15 colon
[14] = system: HL-60(TB) leukemia
[15] = system: HOP-62 NSCLC
[16] = system: HOP-92 NSCLC
[17] = system: HS 578T breast
[18] = system: HT29 colon
[19] = system: IGROV1 ovarian
[20] = system: K-562 leukemia
[21] = system: KM12 colon
[22] = system: LOX IMVI melanoma
[23] = system: M14 melanoma
[24] = system: MALME-3M melanoma
[25] = system: MCF7 breast
[26] = system: MDA-MB-231 breast
[27] = system: MDA-MB-435
[28] = system: MDA-N
[29] = system: MOLT-4 leukemia
[30] = system: NCI-H226 lung
[31] = system: NCI-H23 lung
[32] = system: NCI-H460 lung
[33] = system: NCI-H522 lung
[34] = system: NCI/ADR-RES ovarian
[35] = system: OVCAR-3 ovarian
[36] = system: OVCAR-4 ovarian
[37] = system: OVCAR-5 ovarian
[38] = system: OVCAR-8 ovarian
[39] = system: PC-3 prostate
[40] = system: RPMI-8226 leukemia
[41] = system: RXF 393 renal
[42] = system: SF-268 CNS
[43] = system: SF-295 CNS
[44] = system: SF-539 CNS
[45] = system: SK-MEL-2 melanoma
[46] = system: SK-MEL-28 melanoma
[47] = system: SK-MEL-5 melanoma
[48] = system: SK-OV-3 ovarian
[49] = system: SN12C renal
[50] = system: SNB-19 CNS
[51] = system: SNB-75 CNS
[52] = system: SR leukemia
[53] = system: SW-620 colon
[54] = system: T-47D breast
[55] = system: TK-10 renal
[56] = system: U251 CNS
[57] = system: UACC-257 melanoma
[58] = system: UACC-62 melanoma
[59] = system: UO-31 renal

`CC(C)C1OC(=O)C(Cc2ccccc2)N(C)C(=O)C(C(C)C)OC(=O)C(Cc2ccccc2)N(C)C(=O)C(C(C)C)OC(=O)C(Cc2ccccc2)N(C)C1=O` (configuration not stated) showed a TGI [1] of 2.5 µM, a TGI [2] of 6.53 µM and a TGI [3] of 1.87 µM. It also gave a TGI [4] of 1.64 µM, a TGI [5] of 3.01 µM and a TGI [6] of 2.46 µM. It also gave a TGI [7] of 1.59 µM, a TGI [8] of 1.95 µM and a TGI [9] of 3.03 µM. For the same compound, the TGI [10] was 2.41 µM, the TGI [11] was 1.99 µM and the TGI [12] was 2.36 µM. It also gave a TGI [13] of 2.61 µM, a TGI [14] of 1.21 µM and a TGI [15] of 2.19 µM. For the same compound, the TGI [16] was 1.3 µM, the TGI [17] was 4.9 µM and the TGI [18] was 2.07 µM. It also gave a TGI [19] of 2.43 µM, a TGI [20] of 3.52 µM and a TGI [21] of 1.33 µM. It also gave a TGI [22] of 2.1 µM, a TGI [23] of 2.03 µM and a TGI [24] of 1.29 µM. For the same compound, the TGI [25] was 1.79 µM, the TGI [26] was 2.67 µM and the TGI [27] was 1.41 µM. It also gave a TGI [28] of 2.1 µM, a TGI [29] of 2.33 µM and a TGI [30] of 2.72 µM. The TGI [31] was 2.62 µM, the TGI [32] was 2.44 µM and the TGI [33] was 2.12 µM. For the same compound, the TGI [34] was 2.36 µM, the TGI [35] was 1.79 µM and the TGI [36] was 1.18 µM. It also gave a TGI [37] of 2.44 µM, a TGI [38] of 1.97 µM and a TGI [39] of 1.91 µM. It also gave a TGI [40] of 1.31 µM, a TGI [41] of 2.33 µM and a TGI [42] of 3.2 µM. It also gave a TGI [43] of 1.79 µM, a TGI [44] of 3.47 µM and a TGI [45] of 1.36 µM. The TGI [46] was 2.41 µM, the TGI [47] was 1.08 µM and the TGI [48] was 2.16 µM. The TGI [49] was 2.14 µM, the TGI [50] was 2.18 µM and the TGI [51] was 2.99 µM. The TGI [52] was 4.06 µM, the TGI [53] was 2.54 µM and the TGI [54] was 3.25 µM. The TGI [55] was 2.12 µM, the TGI [56] was 1.77 µM and the TGI [57] was 2 µM. For the same compound, the TGI [58] was 1.98 µM and the TGI [59] was 1.27 µM.
`NC1CC(=O)c2c(I)sc(I)c21` (configuration not stated) was tested, and the TGI [1] was > 53.4 µM, the TGI [2] was 37.1 µM and the TGI [3] was > 79.5 µM. The TGI [4] was 42.1 µM, the TGI [5] was 37.4 µM and the TGI [6] was 27.1 µM. The TGI [7] was > 34.3 µM, the TGI [8] was > 63 µM and the TGI [9] was > 55.1 µM. For the same compound, the TGI [10] was 39.3 µM, the TGI [11] was 44.2 µM and the TGI [12] was > 49.4 µM. For the same compound, the TGI [13] was 45.8 µM, the TGI [14] was 14.6 µM and the TGI [15] was 40.1 µM. The TGI [16] was 43.5 µM, the TGI [17] was 75 µM and the TGI [18] was 50.6 µM. For the same compound, the TGI [19] was 33.1 µM, the TGI [20] was > 100 µM and the TGI [21] was 32.9 µM. The TGI [22] was 27.2 µM, the TGI [23] was > 77.1 µM and the TGI [24] was 29.8 µM. For the same compound, the TGI [25] was > 67.7 µM, the TGI [26] was 38.1 µM and the TGI [27] was 38.7 µM. The TGI [28] was 44.7 µM, the TGI [29] was 44.8 µM and the TGI [30] was 45.6 µM. The TGI [31] was 35 µM, the TGI [32] was 66.8 µM and the TGI [33] was 24.3 µM. For the same compound, the TGI [34] was > 61.7 µM, the TGI [35] was 38.7 µM and the TGI [36] was 38.4 µM. For the same compound, the TGI [37] was 53 µM, the TGI [38] was > 55.4 µM and the TGI [39] was 42.8 µM. For the same compound, the TGI [40] was 29.9 µM, the TGI [41] was > 60.8 µM and the TGI [42] was 46.1 µM. The TGI [43] was 39.8 µM, the TGI [44] was 44.8 µM and the TGI [45] was 36.2 µM. The TGI [46] was 43.2 µM, the TGI [47] was > 71.1 µM and the TGI [48] was > 100 µM. For the same compound, the TGI [49] was > 60.6 µM, the TGI [50] was 46.9 µM and the TGI [51] was 37.9 µM. For the same compound, the TGI [52] was 48.4 µM, the TGI [53] was 46.1 µM and the TGI [54] was > 73 µM. For the same compound, the TGI [55] was 37.2 µM, the TGI [56] was 51.1 µM and the TGI [57] was 39.9 µM. The TGI [58] was 32.6 µM and the TGI [59] was 35.5 µM.
For `O=C(Nc1c[nH]c(=O)[nH]c1=O)Oc1ccccc1`, the TGI [1] was > 100 µM, the TGI [2] was > 100 µM and the TGI [3] was > 100 µM. For the same compound, the TGI [4] was > 100 µM, the TGI [5] was > 100 µM and the TGI [6] was > 100 µM. For the same compound, the TGI [7] was > 100 µM, the TGI [8] was > 100 µM and the TGI [9] was > 100 µM. The TGI [10] was > 100 µM, the TGI [11] was > 100 µM and the TGI [12] was > 100 µM. For the same compound, the TGI [13] was > 100 µM, the TGI [14] was 33.5 µM and the TGI [15] was > 100 µM. For the same compound, the TGI [16] was > 100 µM, the TGI [17] was > 100 µM and the TGI [18] was > 100 µM. For the same compound, the TGI [19] was > 100 µM, the TGI [20] was > 100 µM and the TGI [21] was > 100 µM. The TGI [22] was > 100 µM, the TGI [23] was > 100 µM and the TGI [24] was > 100 µM. The TGI [25] was > 100 µM, the TGI [26] was > 100 µM and the TGI [27] was > 100 µM. The TGI [28] was > 100 µM, the TGI [29] was > 100 µM and the TGI [30] was > 100 µM. The TGI [31] was > 100 µM, the TGI [32] was > 100 µM and the TGI [33] was > 100 µM. The TGI [34] was > 100 µM, the TGI [35] was > 100 µM and the TGI [36] was > 100 µM. The TGI [37] was > 100 µM, the TGI [38] was > 100 µM and the TGI [39] was > 100 µM. For the same compound, the TGI [40] was > 100 µM, the TGI [41] was > 100 µM and the TGI [42] was > 100 µM. The TGI [43] was > 100 µM, the TGI [44] was > 100 µM and the TGI [45] was > 100 µM. For the same compound, the TGI [46] was > 100 µM, the TGI [47] was > 100 µM and the TGI [48] was > 100 µM. For the same compound, the TGI [49] was > 100 µM, the TGI [50] was > 100 µM and the TGI [51] was > 100 µM. The TGI [52] was > 100 µM, the TGI [53] was > 100 µM and the TGI [54] was > 100 µM. The TGI [55] was > 100 µM, the TGI [56] was > 100 µM and the TGI [57] was > 100 µM. For the same compound, the TGI [58] was > 100 µM and the TGI [59] was > 100 µM.
Work on `Cc1cccc(NC(=S)NNC(=O)c2cc(-c3ccccc3)nc3ccccc23)c1` yielded a TGI [1] of 85.1 µM, a TGI [2] of 47.6 µM and a TGI [3] of 70.7 µM. The TGI [4] was > 100 µM, the TGI [5] was > 100 µM and the TGI [6] was 72.4 µM. The TGI [7] was 35.4 µM, the TGI [8] was 40.1 µM and the TGI [9] was > 100 µM. For the same compound, the TGI [11] was 57.3 µM, the TGI [12] was 48.4 µM and the TGI [13] was > 100 µM. The TGI [15] was 99.3 µM, the TGI [16] was 68.5 µM and the TGI [17] was > 100 µM. The TGI [18] was > 100 µM, the TGI [19] was > 100 µM and the TGI [20] was > 100 µM. For the same compound, the TGI [21] was > 100 µM, the TGI [23] was > 100 µM and the TGI [24] was 83.8 µM. The TGI [25] was 57.2 µM, the TGI [26] was 95 µM and the TGI [27] was 85.7 µM. The TGI [28] was > 100 µM, the TGI [29] was 84.3 µM and the TGI [30] was > 100 µM. The TGI [31] was 84.8 µM, the TGI [32] was 85.9 µM and the TGI [33] was 85.8 µM. For the same compound, the TGI [34] was > 100 µM, the TGI [35] was 66.5 µM and the TGI [36] was > 100 µM. For the same compound, the TGI [37] was > 100 µM, the TGI [38] was > 100 µM and the TGI [39] was 83.3 µM. The TGI [40] was 83.6 µM, the TGI [41] was 68.3 µM and the TGI [42] was > 100 µM. For the same compound, the TGI [44] was 58.9 µM, the TGI [45] was 45.8 µM and the TGI [46] was > 100 µM. For the same compound, the TGI [47] was 39 µM, the TGI [48] was 59.2 µM and the TGI [49] was > 100 µM. The TGI [50] was > 100 µM, the TGI [51] was > 100 µM and the TGI [52] was 41.1 µM. For the same compound, the TGI [53] was > 100 µM, the TGI [54] was > 100 µM and the TGI [55] was > 100 µM. The TGI [56] was 89.9 µM, the TGI [57] was > 100 µM and the TGI [58] was 99.7 µM. It also gave a TGI [59] of 57.1 µM.
